The results in this text go back to patent US12208079B2, “Enantiomers of A2-73, analogues, and sigma agonist activity” (Anavex Life Sciences Corp., priority 2015, dated 2025).

In one experiment the target is σ1 (h) (Homo sapiens, UniProt Q99720). Kind of experiment: σ1 (h) receptor binding assay, [3H](+)pentazocine. The conditions noted are these: hydrochloride; for % of Control Specific Binding, 1st / % of Control Specific Binding, 2nd / % of Control Specific Binding, Mean: 1.0E−06 M; for % of Control Specific Binding, 1st: 1st individual value; for % of Control Specific Binding, 2nd: 2nd individual value; for % Inhibition of Control Specific Binding: test concentration 1.0E−06 M. The source says: (§1) The specific ligand binding to the receptors is defined as the difference between the total binding and the nonspecific binding determined in the presence of an excess of unlabelled ligand.
Sequence of σ1 (h) (Q99720 whole entry): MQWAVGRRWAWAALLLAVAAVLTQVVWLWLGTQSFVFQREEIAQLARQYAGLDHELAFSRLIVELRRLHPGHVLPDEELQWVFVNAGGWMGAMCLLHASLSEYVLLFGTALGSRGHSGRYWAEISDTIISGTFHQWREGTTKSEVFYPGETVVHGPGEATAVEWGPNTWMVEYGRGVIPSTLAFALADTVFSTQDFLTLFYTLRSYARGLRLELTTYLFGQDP
(§2) The results are expressed as a percent of control specific binding and as a percent inhibition of control specific binding obtained in the presence of the test compounds. Individual and mean values are presented in the results section.
(§3) The IC50 values (concentration causing a half-maximal inhibition of control specific binding) and Hill coefficients (nH) were determined by non-linear regression analysis of the competition curves using Hill equation curve fitting. The inhibition constants (Ki) were calculated from the Cheng Prusoff equation (Ki=IC50/(1+(L/KD)), where L=concentration of radioligand in the assay, and KD=affinity of the radioligand for the receptor).

The next experiment concerns the target T1, σ2 (Rattus norvegicus, UniProt Q5U3Y7).
T1 sequence (Q5U3Y7 1-176): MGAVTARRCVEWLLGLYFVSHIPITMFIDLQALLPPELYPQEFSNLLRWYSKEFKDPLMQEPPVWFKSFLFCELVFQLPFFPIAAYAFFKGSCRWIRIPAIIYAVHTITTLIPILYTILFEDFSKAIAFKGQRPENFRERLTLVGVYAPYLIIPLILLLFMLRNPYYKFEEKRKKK
The experiment in a line: σ2 receptor binding assay, [3H]DTG (+ 300 nM (+)pentazocine). The conditions noted are these: for % of Control Specific Binding, 1st / % of Control Specific Binding, 2nd / % of Control Specific Binding, Mean: 1.0E−06 M; for % of Control Specific Binding, 1st: 1st individual value; for % of Control Specific Binding, 2nd: 2nd individual value; for % Inhibition of Control Specific Binding: test concentration 1.0E−06 M.
Text: as §1, §2, §3

Experiment [1] concerns muscarinic M1 receptors. The experiment in a line: Isolated organ bioassay, test for agonist activity, field-stimulated rabbit vas deferens. Type of experiment: biochemical. The conditions noted are these: for Effect on twitch contraction amplitude (in words): untreated field-stimulated tissues. As for the experimental part:
(§4) Prostatic segments of rabbit vas deferens were suspended in 20-ml organ baths containing an oxygenated (95% O2 and 5% CO2) and pre-warmed (30° C.) physiological salt solution of the following composition (in mM): NaCl 118.0, KCl 4.7, MgSO4 0.6, CaCl2) 2.5, KH2PO4 1.2, NaHCO325 and glucose 11.0 (pH 7.4).
(§5) Yohimbine (1 μM) and naloxone (1 μM) were also present throughout the experiments to block the α2-adrenergic and opioid receptors, respectively.
(§6) The tissues were connected to force transducers for isometric tension recordings. They were stretched to a resting tension of 1 g then allowed to equilibrate for 60 min during which time they were washed repeatedly and the tension readjusted. Thereafter, they were stimulated electrically with square wave pulses (submaximal intensity, 1 msec duration, 0.1 Hz) delivered by a constant current stimulator.
The tissues were exposed to a submaximal concentration of the reference agonist McN-A-343 (1 μM) to verify responsiveness and to obtain a control response. Following washings and recovery of the initial twitch contractions, the tissues were exposed to the test compounds or the same agonist which were left in contact with the tissues until a stable response was obtained or for a maximum of 15 min.
(§7) The parameter measured was the maximum change in the amplitude of the electrically-evoked contractions induced by the compounds.
(§8) The results are expressed as a percent of the control response to McN-A-343 (mean values).

Experiment [2] concerns muscarinic M1 receptors. Kind of experiment: Isolated organ bioassay, test for antagonist activity, field-stimulated rabbit vas deferens. The format is biochemical. The conditions noted are these: for Response to McN-A-343 (1.0E−06M) in the presence of the compound, percent of the control response: mean, n=2; for Behaviour at the M1 receptors (conclusion): rabbit vas deferens. As for the experimental part:
as §4, §5, §6
The tissues were exposed to a submaximal concentration of the reference agonist McN-A-343 (1 μM) to obtain a control response.
If it occurred, a recovery of the twitch contraction amplitude by the test compounds indicated an antagonist activity at the M1 receptors.
as §7, §8

The conditions of experiment [3]: in vivo, po.
Experiment [4] in a line: Treatment of Alzheimer's patients (Examples 1 and 5). The format is in vivo. As to the method:
A person diagnosed with early stage Alzheimer's dementia is treated with 10 mg of ⊖Anevex2-73 substantially free of Anavex2-73 ? , once per week for three years.
A patient is diagnosed with AD and treated with 10 mg of ⊖Anevex2-73 substantially free of Anavex2-73 ? daily for 3 yrs.

The nature of experiment [5]: Neuroprotection in stroke patient (Example 4). The settings on record: person, ischemic event of middle cerebral artery, 1 mg i.v. Type of experiment: in vivo. As for the experimental part: A person enters the emergency room and is diagnosed with an ischemic event involving the middle cerebral artery, with symptomatology onset being less than 1 hr. Immediately, the patient is administered an i.v. supplemented with 1 mg of ⊖Anevex2-73 substantially free of Anavex2-73 ? while blood supply to the restricted area is restored.

A short description of experiment [6]: Neuroprotection against oxidative (anoxic) stress, balloon ascent (Example 2). The format is in vivo. The conditions noted are these: 10 mgs oral daily for 5 days before ascent to 6,000 meters without oxygen assist. The text has this:
A person balloonist, anticipating anoxic stress, is orally administered 10 mgs of oral ⊖Anevex2-73 substantially free of Anavex2-73 ? daily for 5 days preceding a balloon ascent.

Take `CN(C)CC1COC(c2ccccc2)(c2ccccc2)C1.Cl` (single isomer, unassigned; (+)) [(+) A1-41, tetrahydro-N,N-dimethyl-5,5-diphenyl-3-furanmethanamine hydrochloride]: the entries for the “% of Control Specific Binding, 1st” value at σ1 (h) and at σ2 (hydrochloride) were 35.0% and 60.0%, respectively. Moreover, the “% of Control Specific Binding, 2nd” value on σ1 (h) stood at 32.9%; on σ2 (hydrochloride), 56.8%. Further, the “% of Control Specific Binding, Mean” value at σ1 (h) amounted to 34.0%; on σ2 (hydrochloride) it was 58.4%. Further, the “% Inhibition of Control Specific Binding” value at σ1 (h) worked out at 66%; at σ2 (listed as (+) A1-14, hydrochloride) it was 42%. Further, the “Response to the compound (decrease in twitch contraction amplitude), percent of the control response to McN-A-343” value is listed as −31% in the experiment on muscarinic M1 receptors [1] (compound 1.0E−05M, mean, n=2, listed as (+) AE 14, hydrochloride) and −16% in the experiment on muscarinic M1 receptors [1] (compound 1.0E−06M, mean, n=2, listed as (+) AE 14, hydrochloride). For the same molecule, the “Effect on twitch contraction amplitude (in words)” value (shortened to “Effect”) with muscarinic M1 receptors [1] is listed as “did not decrease the twitch contraction amplitude but caused a slight to moderate increase”. Besides, the “Response to McN-A-343 (1.0E−06M) in the presence of the compound, percent of the control response” value is given as 1% with muscarinic M1 receptors [2] (compound 1.0E−05M, listed as (+) AE 14, hydrochloride) and 13% with muscarinic M1 receptors [2] (compound 1.0E−06M, listed as (+) AE 14, hydrochloride). For the same molecule, the “Behaviour at the M1 receptors (conclusion)” value (from here on “Behaviour at the M1 receptors”) in the experiment on muscarinic M1 receptors [2] is “behave as antagonists at the M1 receptors”.

Regarding `CN(C)CC1CCOC1(c1ccccc1)c1ccccc1.Cl` (single isomer, unassigned; (+)) [(+) A2-73, tetrahydro-N,N-dimethyl-2,2-diphenyl-3-furanmethanamine hydrochloride], on σ1 (h), the “% of Control Specific Binding, 1st” value amounted to 81.5%; the “% of Control Specific Binding, 2nd” value is listed as 81.1%; the “% of Control Specific Binding, Mean” value is 81.3%; the “% Inhibition of Control Specific Binding” value stood at 19%. Also, at σ2 (hydrochloride), the “% of Control Specific Binding, 1st” value stood at 88.9%; the “% of Control Specific Binding, 2nd” value turned out to be 83.2%; the “% of Control Specific Binding, Mean” value worked out at 86.1%; the “% Inhibition of Control Specific Binding” value was 14%.

In the case of `CN(C)CC1COC(c2ccccc2)(c2ccccc2)C1.Cl` (single isomer, unassigned; (-)) [(−) A1-41, tetrahydro-N,N-dimethyl-5,5-diphenyl-3-furanmethanamine hydrochloride], the “% of Control Specific Binding, 1st” value at σ1 (h) turned out to be 35.7%; at σ2 (hydrochloride), 41.0%. Further, the “% of Control Specific Binding, 2nd” value worked out at 33.3% on σ1 (h) and 40.3% at σ2 (hydrochloride). For the same molecule, the “% of Control Specific Binding, Mean” value on σ1 (h) is recorded as 34.5%; at σ2 (hydrochloride), 40.7%. The “% Inhibition of Control Specific Binding” value at σ1 (h) is on record as 65%; at σ2 (listed as (−) A1-14, hydrochloride) it was 59%. In addition, the “Response to the compound (decrease in twitch contraction amplitude), percent of the control response to McN-A-343” value in the experiment with muscarinic M1 receptors [1] (compound 1.0E−05M, mean, n=2, listed as (−) AE 14, hydrochloride) is recorded as −8%; in the experiment on muscarinic M1 receptors [1] (compound 1.0E−06M, mean, n=2, listed as (−) AE 14, hydrochloride), −5%. In addition, the “Effect” value with muscarinic M1 receptors [1] is given as “did not decrease the twitch contraction amplitude but caused a slight to moderate increase”. The “Response to McN-A-343 (1.0E−06M) in the presence of the compound, percent of the control response” value is recorded as 9% with muscarinic M1 receptors [2] (compound 1.0E−05M, listed as (−) AE 14, hydrochloride) and 20% in the experiment with muscarinic M1 receptors [2] (compound 1.0E−06M, listed as (−) AE 14, hydrochloride). Besides, in the experiment with muscarinic M1 receptors [2], the “Behaviour at the M1 receptors” value is “behave as antagonists at the M1 receptors”.

For the molecule `CN(C)CC1CCOC1(c1ccccc1)c1ccccc1.Cl` (single isomer, unassigned; (-)) [(−) A2-73, tetrahydro-N,N-dimethyl-2,2-diphenyl-3-furanmethanamine hydrochloride], on σ1 (h), the “% of Control Specific Binding, 1st” value worked out at 50.7%; the “% of Control Specific Binding, 2nd” value was determined as 50.0%; the “% of Control Specific Binding, Mean” value was determined as 50.4%; the “% Inhibition of Control Specific Binding” value was found to be 50%. Further, at σ2 (hydrochloride), the “% of Control Specific Binding, 1st” value came to 126.1%; the “% of Control Specific Binding, 2nd” value amounted to 100.6%; the “% of Control Specific Binding, Mean” value was 113.4%; the “% Inhibition of Control Specific Binding” value was −13%. Moreover, in the experiment on muscarinic M1 receptors [1] (compound 1.0E−05M, mean, n=2), the “Response to the compound (decrease in twitch contraction amplitude), percent of the control response to McN-A-343” value was −20%. Further, in the experiment on muscarinic M1 receptors [1] (compound 5.0E−05M, mean, n=2), the “Response to the compound (decrease in twitch contraction amplitude), percent of the control response to McN-A-343” value is −33%. The “Effect” value with muscarinic M1 receptors [1] is recorded as “did not decrease the twitch contraction amplitude but caused a slight to moderate increase”. Further, in experiment [3], the “Damage after neurotoxin exposure” value is recorded as “suffers no damage”. In the experiment with muscarinic M1 receptors [2] (compound 1.0E−05M), the “Response to McN-A-343 (1.0E−06M) in the presence of the compound, percent of the control response” value is on record as 16%. Besides, the “Response to McN-A-343 (1.0E−06M) in the presence of the compound, percent of the control response” value with muscarinic M1 receptors [2] (compound 5.0E-05M) is on record as −1%. Also, the “Behaviour at the M1 receptors” value in the experiment on muscarinic M1 receptors [2] is reported as “behave as antagonists at the M1 receptors”. The Cognitive score result in experiment [4] (person with AD, 10 mg daily for 3 yrs) is “stabilizes and then increases slowly and regularly”. Also, the “Brain content in amyloid peptide oligomers on autopsy” value in experiment [4] (person, 10 mg once per week for three years) is listed as “very low content in amyloid peptide oligomers”. In addition, the “Mental function tested quarterly” value in experiment [4] (person, early stage Alzheimer's dementia, 10 mg once per week for three years) is on record as “does not decrease over the period”. Moreover, in experiment [5], the “CT/MRI imaging of the affected region” value was “no signs of lesioning in the affected region”; the “Daily testing of cognitive and motor systems” value is on record as “no deficits in physical or mental capacities”. For the same molecule, the Anoxic damage entry in experiment [6] is on record as “suffers no anoxic damage”.

Regarding `C[N+](C)(C)CC#CCOC(=O)Nc1cccc(Cl)c1.[Cl-]` [McN-A-343, reference compound], in the experiment on muscarinic M1 receptors [1] (+ pirenzepine (1.0E−07M), mean, n=2), the “Response to the compound + pirenzepine, percent of the control response to McN-A-343” value is on record as −5%. Besides, the “Response to the compound (decrease in twitch contraction amplitude), percent of the control response to McN-A-343” value in the experiment on muscarinic M1 receptors [1] (compound 1.0E−06M, mean, n=2) was determined as 99%; in the experiment on muscarinic M1 receptors [1] (compound 1.0E−07M, mean, n=2), 29%; in the experiment with muscarinic M1 receptors [1] (compound 3.0E−07M, mean, n=2), 67%. Further, the “Effect” value in the experiment with muscarinic M1 receptors [1] was “concentration-dependent decrease in the twitch contraction amplitude”.
